In experiment [1] the test system is platelets (PAF induced platelet aggregation). Briefly: inhibition of PAF-induced platelet aggregation in platelet rich plasma. Format: cell-based, New Zealand rabbits. Conditions: Oryctolagus cuniculus; rabbit platelet rich plasma, 2.5 nM PAF. The method, then: 1--INHIBITION OF THE PLATELETS AGGREGATION ON NEW ZEALAND RABBITS
The experimentation was conducted on platelets with plasma of New Zealand rabbits.
Blood samples were taken from auricular artery and placed in a citrate buffer (3.8 %; pH 7.4); blood was further centrifugated for 15 mn at 1200 RPM.
The tested sample was prepared in DMSO, then poured on platelets rich plasma for 1 mn, then a dose of 2.5 nM of PAF was added.
The determination is made on a Cronolog Coultronics apparatus which determines the transmission percentage corresponding to the maximum height of the peak before the desaggregation.
The percentage of variation of the inhibition with respect to the transmission percentage is calculated (control: pure DMSO).
This method was described in details in LABORATORY INVESTIGATIONS, Vol. 41, No. 3, p. 275, 1979, JEAN-PIERRE CAZENAVE, Dr. MED. , JACQUES BENVENISTE, Dr. MED., AND J. FRASER MUSTARD, M.D., "Aggregation of Rabbits Platelets by Platelet-Activating Factor Is Independent of the Release Reaction and the Arachidonate Pathway and Inhibited by Membrane-Active Drugs".
Five tests made on 5 different rabbits allowed us to calculate the IC50 of the various compounds using the linear regression test.

For experiment [2], the target named is T1, [^3 H]-PAF binding, platelet membrane (Oryctolagus cuniculus, UniProt G1TEI7).
T1 construct: Platelet membrane homogenate was stored at -80° C; from tissue; host or cells: rabbit platelets (membrane homogenate from lysed washed platelets)
T1 sequence (G1TEI7 1-342): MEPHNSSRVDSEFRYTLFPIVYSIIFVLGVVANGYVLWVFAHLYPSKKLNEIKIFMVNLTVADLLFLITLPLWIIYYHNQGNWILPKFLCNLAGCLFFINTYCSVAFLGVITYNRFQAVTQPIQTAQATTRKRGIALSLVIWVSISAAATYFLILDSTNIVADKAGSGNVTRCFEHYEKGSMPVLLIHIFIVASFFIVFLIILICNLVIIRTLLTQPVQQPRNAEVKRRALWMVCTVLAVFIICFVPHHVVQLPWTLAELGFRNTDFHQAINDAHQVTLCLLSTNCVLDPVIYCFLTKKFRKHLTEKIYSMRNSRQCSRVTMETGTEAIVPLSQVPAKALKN
Briefly: inhibition of specific [3H]-PAF binding to rabbit platelet membranes. The following applies: 1 nM [3H]-PAF, 0°C 1 h 30. How it is done:
Synthetic tritiated [^3 H]-PAF used was in ethanol solution with a specific activity of 59.5 ci/mmols. Unlabelled PAF and lyso-PAF were solubilized in ethanol solution and stored at -80° C. The compounds were solubilized in DMSO.
Rabbit whole blood (6 volumes) was drawn from the central ear artery into 1 volume of ACD solution (citric acide 1.4 g, sodium citrate 2 5 g, Dextrose 2 g per 100 ml of H2 O) and centrifuged at 150 g for 15 minutes. The platelet-rich plasma (PRP) was carefully removed and centrifuged for 15 minutes at 1000 g. The platelet pellet was then washed 3 times: twice in Tris-HCl buffer 10 mM, pH 7.4 containing NaCl 150 mM, MgCl2 5 mM, EDTA 2 mM and the last time in the same but sodium-free buffer.
The platelet pellet was resuspended in this latter buffer, quickly frozen in liquid nitrogen and slowly thawed at room temperature for at least 3 times as described by T. Y. Shen et al. The lysed platelets were centrifuged at 100,000 g for 30 minutes in a BECKMAN model L8.55 ultra centrifuge (rotor 50.2 Ti). Platelet membrane homogenate was stored at -80° C. and used within two weeks without noticeable changes in PAF-acether binding characteristics.
Protein contain was determined by the Lowry method using bovine serum albumine as standard.
60 to 100 μg of membrane proteins were added to a final volume of 1 ml in plastic tubes containing 1 nM [^3 H]-PAF in Tris-HCl 10 mM pH 7 buffer containing 0.025 % bovine serum albumin and incubated with or without unlabelled PAF or PAF-antagonists. The incubation was carried out for 1 h 30 at 0° C. The bound [^3 H]-PAF was separated from the free [^3 H]-PAF by immediate filtration through whatman GF/C glass fiber filters under vacuum (Brandel system). The reaction and the filters were washed 3 times with 5 ml of ice-cold buffer. The filters were then placed into polyethylene phials filled up with 10 ml of liquid scintillation fluid and the radioactivity was measured by an LKB β counter with 45% efficiency.
The non specific binding was determined in the presence of 10^-6 M of unlabelled PAF. The specific binding was calculated by substracting non specific binding from the total binding. The inhibition by compounds on the specific [^3 H]-PAF binding was determined as the percent inhibition by the equation: [formula]

Experiment [3] has as its system PAF-induced [Ca^2+ ]i mobilization, washed rabbits platelets. Briefly: inhibition of intracytosolic free calcium mobilization induced by PAF in washed rabbit platelets. Format: cell-based. The following applies: PAF 2×10^-9 M; resting about 150 nM. How it is done: Blood was taken from the auricular artery of the rabbit on citric acid/sodium citrate/dextrose and anticoagulan and the washed platelets were prepared according to Ardlie et al., Brit. J. Pharmacology, 19, 7-17, 1970. They were incubated with acetylsalicylic salt (100 μM, 30 minutes) to avoid thromboxane induced aggregation. They were then loaded with the fluorescent calcium indicator dye quin 2 by incubation with quin 2 aceto-methylester (15 μM in DMSO, 20 minutes at room temperature) which penetrates the cell membrane and after hydrolysed is trapped in the platelet. Drugs were preincubated with platelets for 15 minutes simultaneously to CP/CPK mixture which destroys secreted ADP.
Fluorescent measurement was then performed (excitation λ=339 nm, emission λ=494 nm) after PAF addition to platelet suspension. The fluorescence intensity is proportional to the cytosolic free calcium level [Ca^2+ ]i which can be quantified as described by Tsien et al., J. Cell Biol., 94, 325-334, 1982.
For orientation: Calcium flux is commonly read through the fluorescence of an indicator in the cells.

Experiment [4] relates to polymorphonuclear leukocytes (PMNs). Description: antagonism of polymorphonuclear leukocyte aggregation induced by PAF. Format: cell-based, rat (Wistar). Conditions: PAF 10^-8, rat PMNs. The method, then: Polymorphonuclear leukocytes (PMNs) were obtained as described by A. W. Ford-Hutchinson et al. (Br - J. Pharmacol. 76, 367-371, 1982). Cell suspensions ([…]) were prepared from peritoneal exudates obtained after a 5 ml IP injection of sodium caseinate 12% (w/v) to male Wistar rats, 300 g body weight.
After centrifugation, cells were washed with Hanks and resuspended in MEM/Hepes 30 mM medium (PM=7.4) at a concentration of 10^7 cells/ml. Cytochalasin B (5 μg/ml) was added 10 minutes before trigering aggregation to amplify the PMNs aggregation. The light transmittance through the cell suspension (400 μl) was measured under a 900 R/mn magnetic stirring, with a dual beam aggregometer (Chronolog Corp. Coultronics.)
The control cuvet is the cell suspension diluted to 20% of the cell count with MEM and the difference represents 100% transmittance. Change in transmittance, which occurs when PAF is added, was continuously recorded.
Drugs solubilized in MEM/Hepes were added (4 μl) to PMNs suspension 2 minutes before PAF addition.

The values that follow come from US4921865A, “Aminoacylates of glycerol acetal” (Societe de Conseils de Recherches et d'Applications …, priority 1987, dated 1990).

Broadly, the IC50 is the point on the concentration scale where inhibition reaches its midpoint. Read a low IC50 as inhibition by little substance.

As for `CCCCCCCCCCCCCCCCCC1(C)OCC(COC(=O)CCC[n+]2ccccc2)O1` (stereo not drawn) [Example 1, 2-heptadecyl 2-methyl 4-[4'-(N-pyridinium)butyryloxymethyl]-1,3-dioxolan chloride], the values for the half-maximal inhibitory concentration (IC50) in experiment [1] and in experiment [2] were 2.2 µM and 450 nM, respectively.
In turn, `CCCCCCCCCCCCCCCCCC1(C)OCC(COC(=O)CCC[n+]2cccc3ccccc32)O1` (stereo not drawn) [Example 2, 2-heptadecyl 2-methyl 4-[4'(N-quinolinium)butyryloxymethyl]1,3-dioxolan chloride] registered a half-inhibitory concentration (IC50) in experiment [1] of 1.2 µM.
Consider `CCCCCCCCCCCCCCCCCC1(C)OCC(COC(=O)CCC[n+]2ccsc2)O1` (stereo not drawn) [Example 3, 2-heptadecyl 2-methyl 4-[4'-(N-thiazolinium)butyryloxymethyl]1,3-dixolan chloride], for which the 50% inhibitory concentration (IC50) in experiment [1] turned out to be 21.5 µM.
`CCCCCCCCCCCCCCCCCC1OCC(COC(=O)CCC[n+]2ccccc2)O1` (stereo not drawn) [Example 4, 2-heptadecyl 4-[4'-(N-pyridinium)butyryloxymethyl] 1,3-dioxolan chloride] registered an IC50 in experiment [1] of 7 µM.
The compound `CCCCCCCCCCCCCCCCCC1OCC(COC(=O)CCC[n+]2cccc3ccccc32)O1` (stereo not drawn) [Example 5, 2-heptadecyl 4[4'-(N-quinolinium)butyryloxymethyl] 1,3 dioxalan chloride] yielded an IC50 in experiment [1] of 3.1 µM.
`CCCCCCCCCCCCCCCCCC1(CCC)OCC(COC(=O)CCC[n+]2ccccc2)O1` (stereo not drawn) [Example 6, 2-heptadecyl 2-(n-propyl 4-(4'-(N-pyridinium)butyryloxymethyl]1,3-dioxolan chloride] showed a concentration for half-maximal inhibition (IC50) in experiment [1] of 3.04 µM.
On to `CCCCCCCCCCCCCCCCCC1(C)OCC(COC(=O)CCCC[n+]2ccccc2)O1` (stereo not drawn) [Example 7, 2-heptadecyl 2-methyl 4-[5'-(N-pyridinium)pentanoyloxymethyl]1,3-dioxolanchloride], for which the midpoint of inhibition in experiment [1], the IC50, lay at 5 µM.
The same measure, in the same setting: the figure for `COc1cc(C2(C)OCC(COC(=O)CCC[n+]3ccccc3)O2)cc(OC)c1OC` (stereo not drawn) [Example 8, 2-(3,4,5-trimethoxyphenyl) 2-methyl 4-[4'-(N-pyridinium)butyryloxymethyl] 1,3-dioxolan chloride] is 11.3 µM; for `CCCCCCCCCCCCCCCCCC1(C)OCC(COC(=O)CCCCCCCCCC[n+]2ccccc2)O1` (stereo not drawn) [Example 12, 2-heptadecyl 2-methyl 4-[11'-(N-pyridiniumundecanoyloxymethyl) 1,3-dioxolan bromide] it is 31.2 µM; for `CCCCCCCCCCCCCCCCCC1(CCC)OCC(COC(=O)CCCCC[n+]2ccccc2)O1` (stereo not drawn) [Example 13, 2-heptadecyl 2-(n-propyl) 4-[6'-(N-pyridinium)hexanoylmethyl] 1,3-dioxolanbromide] it is 1.73 µM.
As to `CCCCCCCCCC1(C)OCC(COC(=O)CCCCC[n+]2ccccc2)O1` (stereo not drawn) [Example 14, 2-nonyl 2-methyl 4-[6'-(N-pyridiniumhexanoyloxymethyl] 1,3-dioxolan bromide], the half-inhibitory concentration (IC50) in experiment [1] was determined as 1.46 µM; in experiment [2] it was 610 nM.
As to `CCCCCCCCCCCCCCCCOCC(COP(=O)([O-])OCC[N+](C)(C)C)OC(C)=O` (stereo not drawn) [PAF, reference compound], the “[Ca^2+ ]i level after stimulation” value in experiment [3] is 400 to 600 nM. The “aggregation of PMNs induced” value in experiment [4] lay in the range of 55 to 70%.
